# Assay results as given in PubChem BioAssay (NCI).
#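 How tested: cells in 96-well plates exposed to compound for 48 hours at five concentrations. GI50 marks 50% less growth. TGI is the concentration that stops growth completely.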
# What was measured:
# Assay in all cases: NCI anticancer screen, dose series, 48 h
# ACHN renal = test system: ACHN renal
# NCI-H460 lung = test system: NCI-H460 lung
# SN12C renal = test system: SN12C renal
# HS 578T breast = test system: HS 578T breast
# HCT-15 colon = test system: HCT-15 colon
# NCI-H522 lung = test system: NCI-H522 lung
# OVCAR-5 ovarian = test system: OVCAR-5 ovarian
# SF-268 CNS = test system: SF-268 CNS
# U251 CNS = test system: U251 CNS
# RXF 393 renal = test system: RXF 393 renal
# CAKI-1 renal = test system: CAKI-1 renal
# K-562 leukemia = test system: K-562 leukemia
# RPMI-8226 leukemia = test system: RPMI-8226 leukemia
# MALME-3M melanoma = test system: MALME-3M melanoma
# HCT-116 colon = test system: HCT-116 colon
# 786-0 renal = test system: 786-0 renal
# OVCAR-4 ovarian = test system: OVCAR-4 ovarian
# SK-OV-3 ovarian = test system: SK-OV-3 ovarian
# MDA-MB-435 = test system: MDA-MB-435
# M14 melanoma = test system: M14 melanoma
# SF-295 CNS = test system: SF-295 CNS
# SNB-75 CNS = test system: SNB-75 CNS
# A498 renal = test system: A498 renal
# HOP-92 NSCLC = test system: HOP-92 NSCLC
# CCRF-CEM leukemia = test system: CCRF-CEM leukemia
# HOP-62 NSCLC = test system: HOP-62 NSCLC
# COLO 205 colon = test system: COLO 205 colon
# PC-3 prostate = test system: PC-3 prostate
# A549 NSCLC = test system: A549 NSCLC
# IGROV1 ovarian = test system: IGROV1 ovarian
# KM12 colon = test system: KM12 colon
# HL-60(TB) leukemia = test system: HL-60(TB) leukemia
# MDA-N = test system: MDA-N
# OVCAR-3 ovarian = test system: OVCAR-3 ovarian
# UACC-62 melanoma = test system: UACC-62 melanoma
# MDA-MB-231 breast = test system: MDA-MB-231 breast
# DU-145 prostate = test system: DU-145 prostate
# SK-MEL-28 melanoma = test system: SK-MEL-28 melanoma
# UO-31 renal = test system: UO-31 renal
# HCC-2998 colon = test system: HCC-2998 colon
# SK-MEL-2 melanoma = test system: SK-MEL-2 melanoma
# MOLT-4 leukemia = test system: MOLT-4 leukemia
# SF-539 CNS = test system: SF-539 CNS
# EKVX NSCLC = test system: EKVX NSCLC
# MCF7 breast = test system: MCF7 breast
# SNB-19 CNS = test system: SNB-19 CNS
# UACC-257 melanoma = test system: UACC-257 melanoma
# SW-620 colon = test system: SW-620 colon
# T-47D breast = test system: T-47D breast
# LOX IMVI melanoma = test system: LOX IMVI melanoma
# SK-MEL-5 melanoma = test system: SK-MEL-5 melanoma
# TK-10 renal = test system: TK-10 renal
# HT29 colon = test system: HT29 colon
# NCI-H23 lung = test system: NCI-H23 lung
# OVCAR-8 ovarian = test system: OVCAR-8 ovarian
# NCI/ADR-RES ovarian = test system: NCI/ADR-RES ovarian
# NCI-H226 lung = test system: NCI-H226 lung
# SR leukemia = test system: SR leukemia
# BT-549 breast = test system: BT-549 breast
structure (smiles),measurement,setting,value
CCOc1ccc(Nc2nc3c(s2)C(=O)c2ccccc2C3=O)cc1,TGI,ACHN renal,28.9 µM
same,TGI,NCI-H460 lung,38.9 µM
same,TGI,SN12C renal,13.5 µM
same,TGI,HS 578T breast,> 100 µM
same,TGI,HCT-15 colon,> 100 µM
same,TGI,NCI-H522 lung,78.7 µM
same,TGI,OVCAR-5 ovarian,40 µM
same,TGI,SF-268 CNS,16.7 µM
same,TGI,U251 CNS,20.7 µM
same,TGI,RXF 393 renal,27.6 µM
same,TGI,CAKI-1 renal,20.7 µM
same,TGI,K-562 leukemia,> 100 µM
same,TGI,RPMI-8226 leukemia,> 100 µM
same,TGI,MALME-3M melanoma,8.19 µM
same,TGI,HCT-116 colon,33.2 µM
same,TGI,786-0 renal,31.2 µM
same,TGI,OVCAR-4 ovarian,21.3 µM
same,TGI,SK-OV-3 ovarian,34.3 µM
same,TGI,MDA-MB-435,3.25 µM
same,TGI,M14 melanoma,27 µM
same,TGI,SF-295 CNS,23.5 µM
same,TGI,SNB-75 CNS,24 µM
same,TGI,A498 renal,29.7 µM
same,TGI,HOP-92 NSCLC,27.6 µM
same,TGI,CCRF-CEM leukemia,> 100 µM
same,TGI,HOP-62 NSCLC,32 µM
same,TGI,COLO 205 colon,46 µM
same,TGI,PC-3 prostate,20 µM
same,TGI,A549 NSCLC,44.3 µM
same,TGI,IGROV1 ovarian,26.7 µM
same,TGI,KM12 colon,27.9 µM
same,TGI,HL-60(TB) leukemia,> 100 µM
same,TGI,MDA-N,3.69 µM
same,TGI,OVCAR-3 ovarian,12.9 µM
same,TGI,UACC-62 melanoma,5.13 µM
same,TGI,MDA-MB-231 breast,18.4 µM
same,TGI,DU-145 prostate,27.8 µM
same,TGI,SK-MEL-28 melanoma,36.1 µM
same,TGI,UO-31 renal,28.4 µM
same,TGI,HCC-2998 colon,33.5 µM
same,TGI,SK-MEL-2 melanoma,30.6 µM
same,TGI,MOLT-4 leukemia,> 100 µM
same,TGI,SF-539 CNS,35.7 µM
same,TGI,EKVX NSCLC,50.4 µM
same,TGI,MCF7 breast,38.4 µM
same,TGI,SNB-19 CNS,30.1 µM
same,TGI,UACC-257 melanoma,27.4 µM
same,TGI,SW-620 colon,15.2 µM
same,TGI,T-47D breast,49.9 µM
same,TGI,LOX IMVI melanoma,15.8 µM
same,TGI,SK-MEL-5 melanoma,4.07 µM
same,TGI,TK-10 renal,36.3 µM
N=C(N)c1ccc(OCCOCCOc2ccc(C(=N)N)cc2)cc1,GI50,ACHN renal,> 100 µM
same,TGI,ACHN renal,> 100 µM
same,GI50,NCI-H460 lung,44.2 µM
same,TGI,NCI-H460 lung,> 100 µM
same,GI50,SN12C renal,58.8 µM
same,TGI,SN12C renal,> 100 µM
same,GI50,HS 578T breast,67.3 µM
same,TGI,HS 578T breast,> 100 µM
same,GI50,HCT-15 colon,84.1 µM
same,TGI,HCT-15 colon,> 100 µM
same,GI50,NCI-H522 lung,45.5 µM
same,TGI,NCI-H522 lung,> 100 µM
same,GI50,OVCAR-5 ovarian,> 100 µM
same,TGI,OVCAR-5 ovarian,> 100 µM
same,GI50,SF-268 CNS,52 µM
same,TGI,SF-268 CNS,> 100 µM
same,GI50,HT29 colon,78.3 µM
same,TGI,HT29 colon,> 100 µM
same,GI50,U251 CNS,77.6 µM
same,TGI,U251 CNS,> 100 µM
same,GI50,NCI-H23 lung,78 µM
same,TGI,NCI-H23 lung,> 100 µM
same,GI50,RXF 393 renal,> 100 µM
same,TGI,RXF 393 renal,> 100 µM
same,GI50,CAKI-1 renal,> 100 µM
same,TGI,CAKI-1 renal,> 100 µM
same,GI50,K-562 leukemia,63.3 µM
same,TGI,K-562 leukemia,> 100 µM
same,GI50,RPMI-8226 leukemia,68.5 µM
same,TGI,RPMI-8226 leukemia,> 100 µM
same,GI50,MALME-3M melanoma,39.5 µM
same,TGI,MALME-3M melanoma,> 100 µM
same,GI50,OVCAR-8 ovarian,31.4 µM
same,TGI,OVCAR-8 ovarian,> 100 µM
same,GI50,HCT-116 colon,> 100 µM
same,TGI,HCT-116 colon,> 100 µM
same,GI50,786-0 renal,> 100 µM
same,TGI,786-0 renal,> 100 µM
same,GI50,OVCAR-4 ovarian,> 100 µM
same,TGI,OVCAR-4 ovarian,> 100 µM
same,GI50,MDA-MB-435,84.8 µM
same,TGI,MDA-MB-435,> 100 µM
same,GI50,M14 melanoma,> 100 µM
same,TGI,M14 melanoma,> 100 µM
same,GI50,SF-295 CNS,44.7 µM
same,TGI,SF-295 CNS,> 100 µM
same,GI50,NCI/ADR-RES ovarian,> 100 µM
same,TGI,NCI/ADR-RES ovarian,> 100 µM
same,GI50,SNB-75 CNS,> 100 µM
same,TGI,SNB-75 CNS,> 100 µM
same,GI50,A498 renal,63.7 µM
same,TGI,A498 renal,> 100 µM
same,GI50,HOP-92 NSCLC,74.6 µM
same,TGI,HOP-92 NSCLC,> 100 µM
same,GI50,CCRF-CEM leukemia,1 µM
same,TGI,CCRF-CEM leukemia,> 100 µM
same,GI50,NCI-H226 lung,> 100 µM
same,TGI,NCI-H226 lung,> 100 µM
same,GI50,HOP-62 NSCLC,> 100 µM
same,TGI,HOP-62 NSCLC,> 100 µM
same,GI50,COLO 205 colon,50.1 µM
same,TGI,COLO 205 colon,> 100 µM
same,GI50,PC-3 prostate,> 100 µM
same,TGI,PC-3 prostate,> 100 µM
same,GI50,A549 NSCLC,40.1 µM
same,TGI,A549 NSCLC,> 100 µM
same,GI50,IGROV1 ovarian,> 100 µM
same,TGI,IGROV1 ovarian,> 100 µM
same,GI50,KM12 colon,41.6 µM
same,TGI,KM12 colon,> 100 µM
same,GI50,SR leukemia,31.7 µM
same,TGI,SR leukemia,> 100 µM
same,GI50,HL-60(TB) leukemia,> 100 µM
same,TGI,HL-60(TB) leukemia,> 100 µM
same,GI50,OVCAR-3 ovarian,> 100 µM
same,TGI,OVCAR-3 ovarian,> 100 µM
same,GI50,UACC-62 melanoma,> 100 µM
same,TGI,UACC-62 melanoma,> 100 µM
same,GI50,MDA-MB-231 breast,> 100 µM
same,TGI,MDA-MB-231 breast,> 100 µM
same,GI50,DU-145 prostate,96.1 µM
same,TGI,DU-145 prostate,> 100 µM
same,GI50,SK-MEL-28 melanoma,77 µM
same,TGI,SK-MEL-28 melanoma,> 100 µM
same,GI50,UO-31 renal,71.5 µM
same,TGI,UO-31 renal,> 100 µM
same,GI50,BT-549 breast,53.5 µM
same,TGI,BT-549 breast,> 100 µM
same,GI50,HCC-2998 colon,> 100 µM
same,TGI,HCC-2998 colon,> 100 µM
same,GI50,SK-MEL-2 melanoma,38.2 µM
same,TGI,SK-MEL-2 melanoma,> 100 µM
same,GI50,MOLT-4 leukemia,> 100 µM
same,TGI,MOLT-4 leukemia,> 100 µM
same,GI50,SF-539 CNS,35.3 µM
same,TGI,SF-539 CNS,> 100 µM
same,GI50,EKVX NSCLC,> 100 µM
same,TGI,EKVX NSCLC,> 100 µM
same,GI50,MCF7 breast,89.1 µM
same,TGI,MCF7 breast,> 100 µM
same,GI50,SNB-19 CNS,80.6 µM
same,TGI,SNB-19 CNS,> 100 µM
same,GI50,UACC-257 melanoma,38.3 µM
same,TGI,UACC-257 melanoma,> 100 µM
same,GI50,SW-620 colon,> 100 µM
same,TGI,SW-620 colon,> 100 µM
same,GI50,T-47D breast,82.5 µM
same,TGI,T-47D breast,> 100 µM
same,GI50,LOX IMVI melanoma,> 100 µM
same,TGI,LOX IMVI melanoma,> 100 µM
same,GI50,SK-MEL-5 melanoma,33.1 µM
same,TGI,SK-MEL-5 melanoma,> 100 µM
same,GI50,TK-10 renal,39.2 µM
same,TGI,TK-10 renal,> 100 µM
